Source: BigSolDB 2.1

c1ccc(-n2c(-c3cc(-c4nc5ccccc5n4-c4ccccc4)cc(-c4nc5ccccc5n4-c4ccccc4)c3)nc3ccccc32)cc1
solubility (mole fraction)
Conditions	283.15 K	293.15 K	303.15 K	313.15 K	323.15 K
in DMSO	–	0.00119	0.00151	0.0023	0.0032
in THF	0.00159	0.00202	0.00277	0.0042	0.00451
in acetonitrile	0.000114	0.000135	0.000149	0.000188	0.000232
in chlorobenzene	0.00588	0.00711	0.00857	0.00941	0.0111
in chloroform	0.00762	0.00839	0.0092	0.01	0.0113
in cyclohexane	2e-07	4e-07	6e-07	1.1e-06	1.9e-06
in ethanol	0.000357	0.000437	0.000542	0.000716	0.000932
in ethyl acetate	0.000711	0.000777	0.000921	0.0012	0.00174
in isopropanol	1.11e-05	2.18e-05	3.04e-05	4.51e-05	6.88e-05
in methanol	0.000236	0.000259	0.00029	0.000307	0.000361
in n-butanol	0.00117	0.00132	0.00155	0.00167	0.00192
in n-hexane	3.9e-06	5.8e-06	9.5e-06	1.46e-05	2.22e-05
